Test results published in patent publication US20030180808A1, “Drug signatures” (priority 2002, published 2003).
“Also recorded” adds a separate entry of the source. Read-outs that look alike come from different tables or passages of the source.

Assays:
[1] = rats, from the literature or experience, cited from earlier work
PXR receptors = biological target: T1, PXR receptors (Mus musculus, UniProt O54915); conditions: cited from earlier work
T1 sequence (O54915 1-431): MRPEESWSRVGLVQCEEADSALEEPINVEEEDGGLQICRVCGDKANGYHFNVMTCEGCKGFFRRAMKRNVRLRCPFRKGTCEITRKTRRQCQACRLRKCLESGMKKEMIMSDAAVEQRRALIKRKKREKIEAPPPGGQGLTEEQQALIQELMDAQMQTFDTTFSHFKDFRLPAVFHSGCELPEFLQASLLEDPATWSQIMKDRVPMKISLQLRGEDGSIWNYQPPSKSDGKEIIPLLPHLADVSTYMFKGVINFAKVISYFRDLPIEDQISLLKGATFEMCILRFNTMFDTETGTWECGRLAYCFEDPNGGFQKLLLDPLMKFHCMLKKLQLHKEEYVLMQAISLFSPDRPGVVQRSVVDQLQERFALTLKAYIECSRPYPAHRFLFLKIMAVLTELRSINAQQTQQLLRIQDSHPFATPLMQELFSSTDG

[2] = system: 123 assays completed (panel of sites of drug action and drug toxicity); assay: Molecular pharmacology assay panel (MDS-Pharma Services catalog); conditions: for activity in the 123 assays completed: <50% inhibition binned as 0, preliminary test at 30 μM
estrogen receptor [3] = biological target: T2, estrogen receptor (Homo sapiens, UniProt P03372); conditions: read-out: EC50 stimulation of ER; cited from earlier work
T2 sequence (P03372 1-595): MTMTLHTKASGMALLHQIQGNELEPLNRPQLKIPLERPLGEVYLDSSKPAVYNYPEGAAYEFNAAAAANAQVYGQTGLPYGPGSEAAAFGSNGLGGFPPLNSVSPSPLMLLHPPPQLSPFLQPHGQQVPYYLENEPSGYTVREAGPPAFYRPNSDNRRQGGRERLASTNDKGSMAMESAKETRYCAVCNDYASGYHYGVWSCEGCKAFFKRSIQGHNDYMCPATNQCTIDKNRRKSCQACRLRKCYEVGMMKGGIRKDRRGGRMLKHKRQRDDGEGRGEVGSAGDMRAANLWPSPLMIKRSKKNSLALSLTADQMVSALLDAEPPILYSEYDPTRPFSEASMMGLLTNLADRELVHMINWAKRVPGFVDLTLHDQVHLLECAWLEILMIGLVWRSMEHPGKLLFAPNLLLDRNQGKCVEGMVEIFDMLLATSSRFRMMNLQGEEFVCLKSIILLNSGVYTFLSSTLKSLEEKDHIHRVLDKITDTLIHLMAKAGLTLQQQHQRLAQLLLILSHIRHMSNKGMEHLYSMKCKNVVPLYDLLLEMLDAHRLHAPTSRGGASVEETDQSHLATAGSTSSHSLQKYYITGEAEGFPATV

PPARα = biological target: T3, PPARα (Homo sapiens, UniProt Q07869); conditions: cited from earlier work
T3 sequence (Q07869 1-468): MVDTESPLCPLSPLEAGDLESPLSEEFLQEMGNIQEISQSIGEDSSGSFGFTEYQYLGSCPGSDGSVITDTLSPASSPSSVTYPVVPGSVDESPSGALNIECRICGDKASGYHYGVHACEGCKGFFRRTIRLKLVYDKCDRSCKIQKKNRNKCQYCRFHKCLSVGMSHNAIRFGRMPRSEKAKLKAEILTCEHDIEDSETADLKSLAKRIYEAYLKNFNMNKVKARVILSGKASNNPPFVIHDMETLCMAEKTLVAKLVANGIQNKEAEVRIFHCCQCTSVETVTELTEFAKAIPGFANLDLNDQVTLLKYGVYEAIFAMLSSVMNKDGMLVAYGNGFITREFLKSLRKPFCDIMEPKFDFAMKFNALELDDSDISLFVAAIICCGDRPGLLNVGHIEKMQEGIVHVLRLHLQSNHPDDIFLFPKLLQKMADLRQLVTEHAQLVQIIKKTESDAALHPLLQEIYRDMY

site-2 sodium channel = assay: Molecular pharmacology panel assay: site-2 sodium channel
estrogen receptor [4] = biological target: T2, estrogen receptor; assay: Molecular pharmacology panel assay: estrogen receptor
[5] = hypertriglyceridemic patients; known side effect; cited from earlier work

| Compound | maximum tolerated dose (MTD) ([1]; subcutaneously in arrachis oil) | maximum tolerated dose (MTD) ([1]; oral gavage in 1% NaCMC) | activity in the 123 assays completed [2] | other results |
| --- | --- | --- | --- | --- |
| CC(C)(c1ccc(O)cc1)c1ccc(O)cc1 [BPA, bisphenol A] | 150 mg/kg |  |  | activity on PXR (PXR receptors): completely inactive |
| CCOC(=O)C(C)(C)Oc1ccc(Cl)cc1 [Clofibrate, clofibrate] |  | 250 mg/kg | no activity |  |
| CCCCC(CC)COC(=O)c1ccccc1C(=O)OCC(CC)CCCC (centres unmarked) [DEHP] |  | 1,000 mg/kg | no activity | EC50 (estrogen receptor [3]): ~1 µM; stimulation of PPARα (PPARα): potently stimulate |
| C[C@]12CC[C@@H]3c4ccc(O)cc4CC[C@H]3[C@@H]1CC[C@@H]2O [Estradiol] |  |  |  | activity on PXR (PXR receptors): completely inactive |
| CC(C)OC(=O)C(C)(C)Oc1ccc(C(=O)c2ccc(Cl)cc2)cc1 [Fenofibrate] |  | 1,000 mg/kg |  | interaction with the site-2 sodium channel (site-2 sodium channel): interacted weakly; interaction with the estrogen receptor (estrogen receptor [4]): interacted weakly |
| Cc1ccc(C)c(OCCCC(C)(C)C(=O)O)c1 [Gemfibrozil, gemfibrozil] |  | 300 mg/kg | no activity | effect on LDL levels [5]: induce an increase in LDL (low density lipoprotein) levels; also recorded: induces an increase in LDL levels |
| CC(C)(C)CC(C)(C)c1ccc(O)cc1 [OP] | 450 mg/kg |  |  | number of assays in which compound interacted ([2]; of the 123 assays conducted): 16 |
| C[C@]12CC[C@@H]3c4ccc(OC(=O)c5ccccc5)cc4CC[C@H]3[C@@H]1CC[C@@H]2O [estradiol benzoate, Estradiol benzoate] | 2 mg/kg |  |  |  |
| nonylphenol |  |  |  | EC50 (estrogen receptor [3]): ~1 µM; EC50 (PXR receptors; read-out: EC50 stimulation of PXR receptors): ~0.5 µM |
